Experimental data reported in US20230081426A1, “COMPOUNDS AND METHODS FOR KRAS MODULATION AND INDICATIONS THEREFOR” (Plexxikon Inc., priority 2020, published 2023).

Molecular target: T1, G12D-mutant human KRAS (amino acid residues 1-188) (Homo sapiens, UniProt P01116, G12D)
T1 construct: G12D or G12C-mutant human KRAS (amino acid residues 1-188) with FLAG tag; made in house; host or cells: E. coli
Assay: KRAS Binding Disruption Assay (AlphaScreen; biotinylated KRpep-2d analogue or RAF1-RBD), G12D
Details: KRAS G12D; geometric mean; read-out: KRAS GMean IC50 (uM) MUTATION: G12D
Method: Compound binding disrupts the interaction of KRpep-2d or RAF1-RBD with KRAS, leading to a decrease in Alpha signal.
All assay components were prepared in 20 mM HEPES (pH 7.5), 100 mM NaCl, 5 mM MgCl2, 0.01% Tween-20, and 0.01% BSA. Biotinylated analogues of KRpep-2d were custom synthesized. The binding disruption assays were performed using 5-20 nM of mutant KRAS and 5-20 nM of either biotinylated KRpep-2d analogue or RAF1-RBD. 19 μL of KRAS protein and 4 μL of biotinylated KRpep-2d or RAF1-RBD were added to the wells of a 384-well plate containing 1 μL of various concentrations of test compound or DMSO vehicle. 16 wells containing KRAS, biotinylated KRpep-2d or RAF1-RBD, and 5% DMSO served as high controls. 16 wells containing KRAS only and 5% DMSO served as low controls. Binding reactions were incubated for 1 hour at 25° C., then Anti-Flag Acceptor and Streptavidin Donor Alpha beads were added at a final concentration of 10 μg/mL for an additional hour at room temperature. Alpha signal was read out on a Perkin Elmer Envision HTS instrument. The percentage inhibition at individual compound concentrations relative to high and low controls was calculated. The data were analyzed by using nonlinear regression to generate IC50 values.

T1 sequence (P01116 1-188 isoform P01116-2 G12D): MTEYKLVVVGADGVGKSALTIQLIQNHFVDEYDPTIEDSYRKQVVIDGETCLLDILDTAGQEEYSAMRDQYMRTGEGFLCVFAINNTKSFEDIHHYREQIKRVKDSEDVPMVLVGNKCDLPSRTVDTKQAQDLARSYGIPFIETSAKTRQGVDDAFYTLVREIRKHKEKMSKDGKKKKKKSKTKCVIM

CN1CCC[C@H]1COc1nc(N2C[C@H]3CC[C@@H](C2)N3)c2cnc(-c3cc(O)cc4ccccc34)cc2n1 [P-0004, 4-(4-((1R,5S)-3,8-diazabicyclo[3.2.1]octan-3-yl)-2-(((S)-1-methylpyrrolidin-2-yl)methoxy)pyrido[4,3-d]pyrimidin-7-yl)naphthalen-2-ol] and CN1CCC[C@H]1COc1nc(N2C[C@H]3CC[C@@H](C2)N3)c2cc(Cl)c(-c3cc(O)cc4ccccc34)nc2n1 [P-0045, 4-(4-((1R,5S)-3,8-diazabicyclo[3.2.1]octan-3-yl)-6-chloro-2-(((S)-1-methylpyrrolidin-2-yl)methoxy)pyrido[2,3-d]pyrimidin-7-yl)naphthalen-2-ol] fall in the same range of IC50: 0.0001 to 10 µM for the first, 0.0001 to 10 µM for the second.

CN1CCC[C@H]1COc1nc(N2C[C@@H]3CC[C@H]2CN3)c2ccc(-c3cc(O)cc4ccccc34)cc2n1 [P-0011, 4-(4-((1S,4S)-2,5-diazabicyclo[2.2.2]octan-2-yl)-2-(((S)-1-methylpyrrolidin-2-yl)methoxy)quinazolin-7-yl)naphthalen-2-ol] and CN1CCC[C@H]1COc1nc(N2C[C@H]3CC[C@@H]2CN3)c2ccc(-c3cc(O)cc4ccccc34)cc2n1 [P-0012, 4-(4-((1R,4R)-2,5-diazabicyclo[2.2.2]octan-2-yl)-2-(((S)-1-methylpyrrolidin-2-yl)methoxy)quinazolin-7-yl)naphthalen-2-ol] fall in the same range of IC50: 0.0001 to 10 µM for the first, 0.0001 to 10 µM for the second.

Cc1c(-c2cc(O)cc3ccccc23)ccc2c(N3C[C@H]4CC[C@@H](C3)N4)nc(OC[C@@H]3CCCN3C)nc12 [P-0014, 4-(4-((1R,5S)-3,8-diazabicyclo[3.2.1]octan-3-yl)-8-methyl-2-(((S)-1-methylpyrrolidin-2-yl)methoxy)quinazolin-7-yl)naphthalen-2-ol] and CN1CCC[C@H]1COc1nc(N2C[C@H]3CC[C@@H](C2)N3)c2cc(Cl)c(-c3cc(O)cc4ccccc34)c(OCC(F)(F)F)c2n1 [P-0033, 4-(4-((1R,5S)-3,8-diazabicyclo[3.2.1]octan-3-yl)-6-chloro-2-(((S)-1-methylpyrrolidin-2-yl)methoxy)-8-(2,2,2-trifluoroethoxy)quinazolin-7-yl)naphthalen-2-ol] fall in the same range of IC50: 0.0001 to 10 µM for the first, 0.0001 to 10 µM for the second.

Oc1cc(-c2ccc3c(N4C[C@H]5CC[C@@H](C4)N5Cc4ccccc4)nc(OCC45CCCN4CCC5)nc3c2)c2ccccc2c1 [P-0018, 4-(4-((1R,5S)-8-benzyl-3,8-diazabicyclo[3.2.1]octan-3-yl)-2-((tetrahydro-1H-pyrrolizin-7a(5H)-yl)methoxy)quinazolin-7-yl)naphthalen-2-ol] and Oc1cc(-c2ccc3c(N4C[C@H]5CC[C@@H](C4)N5Cc4ccccn4)nc(OCC45CCCN4CCC5)nc3c2)c2ccccc2c1 [P-0076, 4-(4-((1R,5S)-8-(pyridin-2-ylmethyl)-3,8-diazabicyclo[3.2.1]octan-3-yl)-2-((tetrahydro-1H-pyrrolizin-7a(5H)-yl)methoxy)quinazolin-7-yl)naphthalen-2-ol] fall in the same range of IC50: 0.0001 to 10 µM for the first, 0.0001 to 10 µM for the second.

CO[C@@H]1CN(C)C[C@H]1Oc1nc(N2C[C@H]3CC[C@@H](C2)N3)c2cc(Cl)c(-c3cc(O)cc4ccccc34)c(F)c2n1 [P-0035, 4-(4-((1R,5S)-3,8-diazabicyclo[3.2.1]octan-3-yl)-6-chloro-8-fluoro-2-(((3R,4R)-4-methoxy-1-methylpyrrolidin-3-yl)oxy)quinazolin-7-yl)naphthalen-2-ol] and CN1CCC[C@H]1COc1nc(N2CC3COCC(C2)N3)c2cc(Cl)c(-c3cc(O)cc4ccccc34)c(F)c2n1 [P-0040, 4-(4-(3-oxa-7,9-diazabicyclo[3.3.1]nonan-7-yl)-6-chloro-8-fluoro-2-(((S)-1-methylpyrrolidin-2-yl)methoxy)quinazolin-7-yl)naphthalen-2-ol] fall in the same range of IC50: 0.0001 to 10 µM for the first, 0.0001 to 10 µM for the second.

CN1CCC[C@H]1COc1nc(N2C[C@H]3C[C@@H]2CN3)c2cc(Cl)c(-c3cc(O)cc4ccccc34)c(F)c2n1 [P-0041, 4-(4-((1R,4R)-2,5-diazabicyclo[2.2.1]heptan-2-yl)-6-chloro-8-fluoro-2-(((S)-1-methylpyrrolidin-2-yl)methoxy)quinazolin-7-yl)naphthalen-2-ol] and CN1CCC[C@H]1COc1nc(N2C[C@H]3C[C@@H]2CN3)c2ccc(-c3cc(O)cc4ccccc34)cc2n1 [P-0051, 4-(4-((1R,4R)-2,5-diazabicyclo[2.2.1]heptan-2-yl)-2-(((S)-1-methylpyrrolidin-2-yl)methoxy)quinazolin-7-yl)naphthalen-2-ol] fall in the same range of IC50: 0.0001 to 10 µM for the first, 0.0001 to 10 µM for the second.

CN1CCC[C@H]1COc1nc(N2C[C@@H]3C[C@H]2CN3)c2ccc(-c3cc(O)cc4ccccc34)cc2n1 [P-0052, 4-(4-((1S,4S)-2,5-diazabicyclo[2.2.1]heptan-2-yl)-2-(((S)-1-methylpyrrolidin-2-yl)methoxy)quinazolin-7-yl)naphthalen-2-ol] and CN1CC[C@@H](COc2nc(N3C[C@H]4CC[C@@H](C3)N4)c3ccc(-c4cc(O)cc5ccccc45)cc3n2)C1 [P-0069, 4-(4-((1R,5S)-3,8-diazabicyclo[3.2.1]octan-3-yl)-2-(((R)-1-methylpyrrolidin-3-yl)methoxy)quinazolin-7-yl)naphthalen-2-ol] fall in the same range of IC50: 0.0001 to 10 µM for the first, 0.0001 to 10 µM for the second.

First: CN(C)CCN(C)c1nc(N2C[C@H]3CC[C@@H](C2)N3)c2ccc(-c3cc(O)cc4ccccc34)cc2n1 [P-0057, 4-(4-((1R,5S)-3,8-diazabicyclo[3.2.1]octan-3-yl)-2-((2-(dimethylamino)ethyl)(methyl)amino)quinazolin-7-yl)naphthalen-2-ol]
Second: CN(C)C(=O)CCOc1nc(N2C[C@H]3CC[C@@H](C2)N3)c2ccc(-c3cc(O)cc4ccccc34)cc2n1 [P-0071, 3-((4-((1R,5S)-3,8-diazabicyclo[3.2.1]octan-3-yl)-7-(3-hydroxynaphthalen-1-yl)quinazolin-2-yl)oxy)-N,N-dimethylpropanamide]
The IC50 of the first is higher: 10 to 100 µM for the first, 0.0001 to 10 µM for the second. The second is the more potent here.

First: CN(C)C(=O)COc1nc(N2C[C@H]3CC[C@@H](C2)N3)c2ccc(-c3cc(O)cc4ccccc34)cc2n1 [P-0070, 2-((4-((1R,5S)-3,8-diazabicyclo[3.2.1]octan-3-yl)-7-(3-hydroxynaphthalen-1-yl)quinazolin-2-yl)oxy)-N,N-dimethylacetamide]
Second: CN(C)CC(CN)Oc1nc(N2C[C@H]3CC[C@@H](C2)N3)c2ccc(-c3cc(O)cc4ccccc34)cc2n1 (stereo partly drawn) [P-0074, 4-(2-((1-amino-3-(dimethylamino)propan-2-yl)oxy)-4-((1R,5S)-3,8-diazabicyclo[3.2.1]octan-3-yl)quinazolin-7-yl)naphthalen-2-ol]
The IC50 of the first is higher: 10 to 100 µM for the first, 0.0001 to 10 µM for the second. The second is the more potent here.

Oc1cc(-c2ccc3c(N4C[C@H]5CC[C@@H](C4)N5)nc(OCC4CCOC4)nc3c2)c2ccccc2c1 (stereo partly drawn) [P-0081, 4-(4-((1R,5S)-3,8-diazabicyclo[3.2.1]octan-3-yl)-2-((tetrahydrofuran-3-yl)methoxy)quinazolin-7-yl)naphthalen-2-ol] showed an IC50 of 0.0001 to 10 µM.

Same assay, conditions: Table 3; geometric mean; bridged vs non-bridged R1; read-out: KRAS GMean IC50 (uM) MUTATION: G12D

CN1CCC[C@H]1COc1nc(N2CCNCC2)c2cc(Cl)c(-c3cc(O)cc4ccccc34)c(F)c2n1 [Non-bridged version of P-0001, reference compound] gave an IC50 of 1.11 µM.

Same assay, conditions: Table 4; geometric mean; comparison with compounds of WO 2017/172979; read-out: KRAS GMean IC50 (uM) MUTATION: G12D

Going from CC1CN(c2nc(OCCCN3CCC(F)(F)C3)nc3c(F)c(-c4cc(O)cc5ccccc45)c(Cl)cc23)C(C)CN1 (stereo not shown) [Compound 36 in WO 2017/172979, reference compound] to CN(C)CCCOc1nc(N2CCN(C)CC2)c2cc(Cl)c(-c3cc(O)cc4ccccc34)c(F)c2n1 [Compound 149 in WO 2017/172979, reference compound], the IC50 rises from 3.06 µM to 16.5 µM (5.4-fold).
